Assay [1] concerns the target T1, High mobility group protein B1 (Homo sapiens, UniProt P09429).
T1 sequence (P09429 whole entry): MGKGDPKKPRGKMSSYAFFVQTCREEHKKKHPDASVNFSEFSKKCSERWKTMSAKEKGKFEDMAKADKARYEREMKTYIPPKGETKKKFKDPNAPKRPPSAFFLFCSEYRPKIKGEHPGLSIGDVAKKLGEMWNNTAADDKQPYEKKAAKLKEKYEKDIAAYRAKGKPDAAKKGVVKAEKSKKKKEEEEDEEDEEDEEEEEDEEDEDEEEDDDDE
Put plainly: Binding affinity to 6His-tagged HMGB1 (unknown origin) incubated for 15 mins by MST analysis.

For assay [2], the target named is T1, High mobility group protein B1. Put plainly: Binding affinity to full-length N-terminal 6His-tagged HMGB1 (unknown origin) by NMR spectra.
The target in assay [3] is C-X-C chemokine receptor type 4 (Homo sapiens) (UniProt P61073). Put plainly: Inhibition of human CXCR4-mediated chemotaxis expressed in mouse 300-19 Pre-B cells assessed as reduction in CXCL12/HMGB1-induced cell migration at 100 uM. In kind it is functional, cell-based.
Sequence of C-X-C chemokine receptor type 4 (Homo sapiens) (P61073 whole entry): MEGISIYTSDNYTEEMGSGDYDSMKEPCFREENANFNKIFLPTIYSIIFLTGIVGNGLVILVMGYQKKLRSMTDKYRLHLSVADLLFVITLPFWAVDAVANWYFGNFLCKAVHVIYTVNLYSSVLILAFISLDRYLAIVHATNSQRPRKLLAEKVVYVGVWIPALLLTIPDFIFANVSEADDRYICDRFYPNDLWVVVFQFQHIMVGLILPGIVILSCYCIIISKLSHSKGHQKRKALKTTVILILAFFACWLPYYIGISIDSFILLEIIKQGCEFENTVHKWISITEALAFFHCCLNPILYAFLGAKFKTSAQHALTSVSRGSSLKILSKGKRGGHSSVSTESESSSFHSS
Assay [4] has the same target. The assay is described as follows: Inhibition of human CXCR4-mediated chemotaxis expressed in mouse 300-19 Pre-B cells assessed as reduction in CXCL12-induced cell migration at 100 uM. In kind it is functional, cell-based.
Assay [5] has the same target. Put plainly: Inhibition of human CXCR4-mediated chemotaxis expressed in human monocytes assessed as reduction in CXCL12/HMGB1-induced cell migration at 100 uM. In kind it is functional, cell-based. The note with it: Monocyte.
Assay [6] deals with Toll-like receptor 4 (Homo sapiens) (UniProt O00206). Put plainly: Inhibition of HMGB1 binding to TLR4 in human monocytes assessed as reduction in HMGB1-induced TNF production at 100 uM by cytometric bead array. In kind it is cell-based. The note with it: Monocyte.
Sequence of Toll-like receptor 4 (Homo sapiens) (O00206 whole entry): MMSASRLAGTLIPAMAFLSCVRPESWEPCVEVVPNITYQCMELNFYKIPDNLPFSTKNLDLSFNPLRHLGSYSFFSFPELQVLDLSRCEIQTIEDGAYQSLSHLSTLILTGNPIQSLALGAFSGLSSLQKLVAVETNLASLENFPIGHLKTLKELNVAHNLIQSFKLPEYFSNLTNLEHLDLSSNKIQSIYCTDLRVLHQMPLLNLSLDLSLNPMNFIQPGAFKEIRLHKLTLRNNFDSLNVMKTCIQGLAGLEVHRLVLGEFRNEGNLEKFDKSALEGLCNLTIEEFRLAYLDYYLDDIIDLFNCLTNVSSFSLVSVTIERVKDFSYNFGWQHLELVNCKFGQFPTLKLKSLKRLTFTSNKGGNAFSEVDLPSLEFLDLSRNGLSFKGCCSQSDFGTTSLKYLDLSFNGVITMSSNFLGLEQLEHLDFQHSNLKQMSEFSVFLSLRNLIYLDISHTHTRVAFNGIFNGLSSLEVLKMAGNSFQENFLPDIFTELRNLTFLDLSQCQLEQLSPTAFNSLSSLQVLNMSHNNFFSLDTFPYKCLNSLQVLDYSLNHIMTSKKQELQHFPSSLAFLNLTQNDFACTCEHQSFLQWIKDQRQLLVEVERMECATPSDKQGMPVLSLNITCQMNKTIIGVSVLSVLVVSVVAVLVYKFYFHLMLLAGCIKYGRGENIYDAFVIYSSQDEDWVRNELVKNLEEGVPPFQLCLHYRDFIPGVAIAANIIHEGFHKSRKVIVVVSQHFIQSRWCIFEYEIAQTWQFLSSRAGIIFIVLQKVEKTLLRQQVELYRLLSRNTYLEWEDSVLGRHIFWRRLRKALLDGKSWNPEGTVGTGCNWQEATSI
Assay [7] has as its target C-X-C chemokine receptor type 4 (Homo sapiens) (UniProt P61073). Put plainly: Inhibition of human CXCR4-mediated chemotaxis expressed in human monocytes assessed as reduction in CXCL12-induced cell migration at 100 uM. In kind it is functional, cell-based. The note with it: Monocyte.
Assay [8] shares this target. Put plainly: Inhibition of human CXCR4-mediated chemotaxis expressed in mouse 300-19 Pre-B cells assessed as reduction in CXCL12/HMGB1-induced cell migration at 50 uM. In kind it is functional, cell-based.
The target in assay [9] is Toll-like receptor 4 (Homo sapiens) (UniProt O00206). Put plainly: Inhibition of HMGB1 binding to TLR4 in human monocytes assessed as reduction in HMGB1-induced IL-6 production at 100 uM by cytometric bead array. In kind it is cell-based. The following applies: Monocyte.
In assay [10] the target is C-X-C chemokine receptor type 4 (Homo sapiens) (UniProt P61073). Put plainly: Inhibition of human CXCR4-mediated chemotaxis expressed in mouse 300-19 Pre-B cells assessed as reduction in CXCL12/HMGB1-induced cell migration at 200 uM. In kind it is functional, cell-based.

The source made the active and inactive calls. The calls are words filed in the database; no cut-off is given here.

The record followed here is ChEMBL document CHEMBL4831529, “Systematic Development of Peptide Inhibitors Targeting the CXCL12/HMGB1 Interaction” (J Med Chem, 2021).

Usually Kd stands for a measure of binding affinity in units of concentration. For the compound H-GYHYE-OH, the Kd entry in assay [1] is listed as “Not Active”.
`O=C(O)c1cc(-c2ccc(F)cc2F)ccc1O` [DIFLUNISAL]: in assay [2], the Kd was determined as 1600 µM.
With H-ERWIH-OH, the Kd in assay [1] (read-out: Kd) was 160 µM.
In general, inhibition refers to the drop in the measured response relative to a control, in per cent. In the case of H-HWTLANWCR-OH, in assay [3], the inhibition result was “Active”. In addition, the inhibition result in [4] was “inactive”.
On the same counts, the results for H-YHICWYGDY-OH are “Active” and “Active”.
H-GYHYERWIH-OH: the inhibition result in assay [5] and in assay [3] was “Active” in each case. Also, the inhibition result in [6], in [7], in assay [4] and in assay [9] was “inactive” each time. Also, in [8], the inhibition turned out to be 50%.
With H-WISNWILMW-OH, the inhibition result in assay [3] and in assay [4] was “Active” in each case.
`CC1(C)[C@@H](O[C@H]2O[C@H](C(=O)O)[C@@H](O)[C@H](O)[C@H]2O[C@@H]2O[C@H](C(=O)O)[C@@H](O)[C@H](O)[C@H]2O)CC[C@]2(C)[C@H]3C(=O)C=C4[C@@H]5C[C@@](C)(C(=O)O)CC[C@]5(C)CC[C@@]4(C)[C@]3(C)CC[C@@H]12`: in [10], the inhibition result was “Active”.
